Laboratory results reported in publication PMC12735951, “A Bioorthogonal TCO–Tetrazine-Based Pretargeted PET/NIRF Platform Enabling High-Contrast Tumor Imaging” (Pharmaceuticals, 2025).
Each block holds one compound with its values, some of them ahead of it.

Assays:
U87MG xenograft = assay: In vivo NIR fluorescence imaging, U87MG xenograft-bearing nude mice
Method: (§1) To evaluate the tumor-targeting characteristics of DZ-TCO derivatives, DZ-1-TCO, DZ-Lys-TCO, and DZ-Lys-PEG4-TCO were administered to HeLa and U87MG xenograft-bearing nude mice (100 μL of 50 μM, n = 3 per group). In vivo fluorescence imaging was conducted at 4, 24, 48, 72, and 96 h after TCO compound injection.
(§2) Female BALB/c nude mice (4–6 weeks old; 14–20 g), obtained from Beijing Vital River Laboratory Animal Technology Co., Ltd. (Beijing, China), were subcutaneously inoculated with 5 × 10^6 HeLa or U87MG cells suspended in 100 μL PBS into the right flank. Tumor growth was monitored every 2–3 days using digital calipers, and experiments were initiated when tumor volumes reached approximately 150–300 mm^3, calculated using the formula Volume = (length × width^2)/2.
(§3) To assess the tumor-targeting capability and clearance kinetics of DZ-TCO precursors, 100 µL of each compound ([…] in PBS) was administered intravenously via the tail vein. Whole-body fluorescence imaging was performed at predetermined time points (4, 24, 48, 72, and 96 h post-injection) using the IVIS Spectrum imaging system (PerkinElmer, Shelton, CT, USA) (excitation/emission, 745/820 nm) with automatic subtraction of background fluorescence during the acquisition. Fluorescence signals were acquired under standardized exposure settings, and region-of-interest (ROI) analysis was conducted using Living Image software version 4.4 (PerkinElmer) to quantify fluorescence intensity in the tumor and major organs.

HeLa and U87MG xenograft = assay: In vivo NIR fluorescence imaging, results not split by tumor model (organs, tumor-to-background ratios, retention); parameters: species or system mice
Method: as §1, §2
as §3, with “([…])” for “(4, 24, 48, 72, and 96 h post-injection)”

HeLa xenograft = assay: In vivo NIR fluorescence imaging, HeLa xenograft-bearing nude mice
Method: as §1, §2, §3

HeLa tumors = assay: Pretargeting biodistribution (γ-counter) of DZ-Lys-TCO and ^68Ga-DOTA-H-Tz; format: in vivo, mice; settings: DZ-Lys-TCO 48 h pretargeting interval
Method: To assess the in vivo biodistribution of the pretargeting system, female BALB/c nude mice bearing HeLa tumors (n = 3) were first injected intravenously with DZ-TCO. After 48 h, 0.74 MBq of ^68Ga-DOTA-H-Tz was administered via the tail vein. At 30, 60, and 120 min post-injection, mice were euthanized, and tissues including blood, tumor, liver, kidney, spleen, heart, lung, muscle, stomach, intestines, brain, and bone were excised, weighed, and counted using a γ-counter (Wizard2, PerkinElmer, Shelton, CT, USA). Radiotracer uptake was expressed as the percentage of injected dose per gram of tissue (%ID/g). Tumor-to-organ uptake ratios were calculated accordingly.

subcutaneous tumors = assay: Pretargeted PET imaging with DZ-Lys-TCO and ^68Ga-DOTA-H-Tz at different intervals; format: in vivo, mice; settings: DZ-Lys-TCO pre-injected
Method: To evaluate in vivo tumor targeting and bioorthogonal reaction kinetics, female BALB/c nude mice bearing subcutaneous tumors were intravenously injected with […] of each DZ-TCO precursor in phosphate-buffered saline (PBS). At predefined intervals (24, 48, or 72 h post-injection), […] of ^68Ga-labeled tetrazine probe (^68Ga-DOTA-Me-Tz or ^68Ga-DOTA-H-Tz; 3.7 MBq in PBS) was administered via the tail vein. PET imaging was performed using the IRIS system (Inviscan, Paris, France) at 30 min, 1 h, and 2 h post-injection under 2% isoflurane anesthesia. Image reconstruction and quantitative analysis were conducted using Inveon Research Workplace and OsiriX MD software version 10.0.4. Regions of interest (ROIs) were manually defined over tumors and major organs, and radiotracer uptake was expressed as the percentage of the injected dose per gram of tissue (%ID/g).

[1] = In vitro stability in 50% PBS; format: physicochemical; settings: 37 °C
Method: (§4) ^68GaCl3 (5 mL, 20 mCi) and DOTA-Tz (50 μg) were mixed in a reaction vial. The pH was adjusted to 4.0–4.5 by adding 1 M sodium acetate, and the mixture was heated at 95 °C for 15 min without further purification. Radiochemical purity was confirmed by RP-HPLC. In vitro stability of ^68Ga-DOTA-Tz was assessed by incubating aliquots in 50% FBS or 50% PBS at 37 °C for 30 min, 1 h, 2 h, and 4 h. The partition coefficient (log p) was determined by mixing 1 mL of n-octanol with 1 mL of PBS containing the tracer, vortexing, and centrifuging at 3000 rpm for 5 min. Samples (0.1 mL) from both the organic and aqueous phases were withdrawn, and their radioactivity was measured using a γ-counter (PerkinElmer Wizard, Shelton, CT, USA).

[2] = Partition coefficient (log p), n-octanol/PBS; format: physicochemical
Method: as §4

[3] = In vitro stability in 50% fetal bovine serum (FBS); format: in vitro ADME; settings: for radiochemical purity in FBS at 4 h: 50% FBS, 37 °C; for radiochemical stability after 4 h: PBS and serum
Method: as §4

tumor fluorescence intensity (U87MG xenograft; 4 h post-injection): 5.23 × 10^9 p/s/cm^2/sr | tumor fluorescence intensity (U87MG xenograft; 24 h post-injection): 7.18 × 10^9 p/s/cm^2/sr | tumor fluorescence intensity (U87MG xenograft; 48 h post-injection): 4.30 × 10^9 p/s/cm^2/sr | tumor-to-background fluorescence ratio (HeLa and U87MG xenograft; 4 h): 368.67 ± 151.28 | fluorescence signal intensity, kidneys (HeLa and U87MG xenograft; 48 h): 3.95 × 10^8 p/s/cm^2/sr | fluorescence signal intensity, liver (HeLa and U87MG xenograft; 48 h): 5.04 × 10^8 p/s/cm^2/sr | fluorescence signal intensity, lungs (HeLa and U87MG xenograft; 48 h): 2.02 × 10^8 p/s/cm^2/sr | fluorescence signal intensity, spleen (HeLa and U87MG xenograft; 48 h): 8.77 × 10^7 p/s/cm^2/sr | tumor-to-background fluorescence ratio (HeLa and U87MG xenograft; 48 h): 4746.67 ± 100.66 | fluorescence signal intensity, liver (HeLa and U87MG xenograft; 96 h): 4.38 × 10^8 p/s/cm^2/sr | fluorescence in normal tissues (HeLa and U87MG xenograft; 168 h): nearly undetectable | tumor fluorescence signal remained detectable (time post-injection) (HeLa and U87MG xenograft; post-injection): up to 168 h | tumor fluorescence intensity (HeLa xenograft; 4 h post-injection): 2.19 × 10^9 p/s/cm^2/sr | tumor fluorescence intensity (HeLa xenograft; 24 h post-injection): 7.06 × 10^9 p/s/cm^2/sr | tumor fluorescence intensity (HeLa xenograft; 48 h post-injection): 5.43 × 10^9 p/s/cm^2/sr
SMILES: CC1(C)C(=CC=C2CCCC(C=CC3=[N+](CCCCS(=O)(=O)[O-])c4ccccc4C3(C)C)=C2Cl)N(CCCCCC(=O)NCCCCC(N)C(=O)NCCCNC(=O)OC2CCC=CCCC2)c2ccccc21 (stereo not shown) [DZ-Lys-TCO]

Blood uptake (HeLa tumors; 30 min): 2.96 ± 0.11 %ID/g | Bone uptake (HeLa tumors; 30 min): 0.64 ± 0.27 %ID/g | Brain uptake (HeLa tumors; 30 min): 0.37 ± 0.30 %ID/g | Heart uptake (HeLa tumors; 30 min): 1.34 ± 0.53 %ID/g | Intestine uptake (HeLa tumors; 30 min): 1.97 ± 0.38 %ID/g | Kidney uptake (HeLa tumors; 30 min): 10.71 ± 1.34 %ID/g | Lung uptake (HeLa tumors; 30 min): 2.38 ± 1.41 %ID/g | Muscle uptake (HeLa tumors; 30 min): 0.97 ± 0.21 %ID/g | Spleen uptake (HeLa tumors; 30 min): 1.03 ± 0.08 %ID/g | Stomach uptake (HeLa tumors; 30 min): 1.16 ± 0.13 %ID/g | T/B (tumor-to-blood ratio) (HeLa tumors; 30 min): 1.18 ± 0.55 | T/K (tumor-to-kidney ratio) (HeLa tumors; 30 min): 0.32 ± 0.14 | T/L (tumor-to-liver ratio) (HeLa tumors; 30 min): 1.18 ± 0.28 | liver uptake (HeLa tumors; 30 min): 2.95 ± 1.04 %ID/g | tumor uptake (HeLa tumors; 30 min): 3.53 ± 1.76 %ID/g | Blood uptake (HeLa tumors; 60 min): 1.05 ± 0.29 %ID/g | Bone uptake (HeLa tumors; 60 min): 0.52 ± 0.20 %ID/g | Brain uptake (HeLa tumors; 60 min): 0.10 ± 0.03 %ID/g | Heart uptake (HeLa tumors; 60 min): 0.78 ± 0.58 %ID/g | Intestine uptake (HeLa tumors; 60 min): 0.59 ± 0.08 %ID/g | Kidney uptake (HeLa tumors; 60 min): 6.54 ± 1.95 %ID/g | Lung uptake (HeLa tumors; 60 min): 0.50 ± 0.18 %ID/g | Muscle uptake (HeLa tumors; 60 min): 0.38 ± 0.15 %ID/g | Spleen uptake (HeLa tumors; 60 min): 0.91 ± 0.70 %ID/g | Stomach uptake (HeLa tumors; 60 min): 0.83 ± 0.30 %ID/g | T/B (tumor-to-blood ratio) (HeLa tumors; 60 min): 1.63 ± 0.53 | T/K (tumor-to-kidney ratio) (HeLa tumors; 60 min): 0.25 ± 0.05 | T/L (tumor-to-liver ratio) (HeLa tumors; 60 min): 1.08 ± 0.27 | T/M (tumor-to-muscle ratio) (HeLa tumors; 60 min): 5.11 ± 3.51 | liver uptake (HeLa tumors; 60 min): 1.56 ± 0.49 %ID/g | tumor uptake (HeLa tumors; 60 min): 1.72 ± 0.87 %ID/g | Blood uptake (HeLa tumors; 120 min): 0.64 ± 0.18 %ID/g | Bone uptake (HeLa tumors; 120 min): 0.08 ± 0.03 %ID/g | Brain uptake (HeLa tumors; 120 min): 0.03 ± 0.01 %ID/g | Heart uptake (HeLa tumors; 120 min): 0.17 ± 0.03 %ID/g | Intestine uptake (HeLa tumors; 120 min): 0.11 ± 0.08 %ID/g | Kidney uptake (HeLa tumors; 120 min): 3.28 ± 1.00 %ID/g | Lung uptake (HeLa tumors; 120 min): 0.14 ± 0.02 %ID/g | Muscle uptake (HeLa tumors; 120 min): 0.07 ± 0.02 %ID/g | Spleen uptake (HeLa tumors; 120 min): 0.24 ± 0.06 %ID/g | Stomach uptake (HeLa tumors; 120 min): 0.10 ± 0.05 %ID/g | T/B (tumor-to-blood ratio) (HeLa tumors; 120 min): 1.39 ± 0.74 | T/K (tumor-to-kidney ratio) (HeLa tumors; 120 min): 0.26 ± 0.10 | T/L (tumor-to-liver ratio) (HeLa tumors; 120 min): 1.07 ± 0.05 | T/M (tumor-to-muscle ratio) (HeLa tumors; 120 min): 10.92 ± 0.31 | liver uptake (HeLa tumors; 120 min): 0.76 ± 0.23 %ID/g | tumor uptake (HeLa tumors; 120 min): 0.82 ± 0.28 %ID/g | Bone uptake, consistently (HeLa tumors; all time points): < 0.70 %ID/g | maximum T/M ratio (subcutaneous tumors; 24 h interval): 5.31 ± 0.48 | liver uptake (subcutaneous tumors; 24 h interval, 30 min p.i.): 2.61 ± 0.53 %ID/g | tumor uptake (subcutaneous tumors; 24 h interval, 30 min p.i.): 2.64 ± 0.73 %ID/g | T/L ratio (subcutaneous tumors; 24 h interval, 60 min p.i.): 1.01 ± 0.08 | liver uptake (subcutaneous tumors; 24 h interval, 60 min p.i.): 1.15 ± 0.16 %ID/g | tumor uptake (subcutaneous tumors; 24 h interval, 60 min p.i.): 1.18 ± 0.25 %ID/g | liver uptake (subcutaneous tumors; 24 h interval, 120 min p.i.): 0.91 ± 0.16 %ID/g | tumor uptake (subcutaneous tumors; 24 h interval, 120 min p.i.): 0.79 ± 0.14 %ID/g | T/L ratio (subcutaneous tumors; 48 h interval): 1.35 ± 0.26 | T/M ratio (highest) (subcutaneous tumors; 48 h interval): 8.30 ± 3.39 | tumor uptake (subcutaneous tumors; 48 h interval, 30 min p.i.): 3.24 ± 0.95 %ID/g | tumor uptake (subcutaneous tumors; 48 h interval, 120 min p.i.): 0.96 ± 0.29 %ID/g | maximum T/M ratio (subcutaneous tumors; 72 h interval): 5.84 ± 1.49 | liver uptake (subcutaneous tumors; 72 h interval, 30 min p.i.): 2.32 ± 0.79 %ID/g | tumor uptake (subcutaneous tumors; 72 h interval, 30 min p.i.): 1.89 ± 0.57 %ID/g | T/L ratio (subcutaneous tumors; 72 h interval, 60 min p.i.): 0.98 ± 0.10 | liver uptake (subcutaneous tumors; 72 h interval, 60 min p.i.): 1.40 ± 0.43 %ID/g | tumor uptake (subcutaneous tumors; 72 h interval, 60 min p.i.): 1.35 ± 0.31 %ID/g | liver uptake (subcutaneous tumors; 72 h interval, 120 min p.i.): 0.97 ± 0.05 %ID/g | tumor uptake (subcutaneous tumors; 72 h interval, 120 min p.i.): 0.91 ± 0.31 %ID/g | radiochemical purity in PBS after 4 h [1]: 98.76 ± 0.52% | log p [2]: −3.57 ± 0.21 | radiochemical purity in FBS at 4 h [3]: 98.53 ± 0.58% | radiochemical stability after 4 h [3]: > 85%
SMILES: O=C([O-])CN1CCN(CC(=O)[O-])CCN(CC(=O)NCCCCNC(=O)Cc2ccc(-c3nncnn3)cc2)CCN(CC(=O)[O-])CC1.[68Ga+3] [^68Ga-DOTA-H-Tz]

radiochemical purity in PBS after 4 h [1]: 94.48 ± 1.48% | log p [2]: −2.87 ± 0.02 | radiochemical purity in FBS at 4 h [3]: 85.88 ± 7.55% | radiochemical stability after 4 h [3]: > 85%
SMILES: Cc1nnc(-c2ccc(OCCOCCOCCOCCNC(=O)CN3CCN(CC(=O)[O-])CCN(CC(=O)[O-])CCN(CC(=O)[O-])CC3)cc2)nn1.[68Ga+3] [^68Ga-DOTA-Me-Tz]
